Experimental data from PMC12655637, “Design, Synthesis, and Mechanistic Study of Novel Ciprofloxacin/Thiazole Chalcone Hybrids as Potential Anticancer Agents” (Pharmaceuticals, 2025).

Key:
SNB-75 = assay: NCI-60 screening, one-dose (10 µM) and five-dose, SRB; type: cell-based, human
NCI-H226 = assay: as above; type: cell-based, human
NCI-H322M = assay: as above; type: cell-based, human
HCT-116 = assay: as above; type: cell-based, human; conditions: five-dose, HCT-116
SF-268 = assay: as above; type: cell-based, human
A549/ATCC = assay: as above; type: cell-based, human
UACC-257 = assay: as above; type: cell-based, human
MOLT-4 = assay: as above; type: cell-based, human
K-562 = assay: as above; type: cell-based, human
COLO 205 = assay: as above; type: cell-based, human
[1] = test system: 60 human cancer cell lines; assay: NCI-60 screening, full panel (mean growth, MID a, ranges over all lines)
Procedure: The screening was performed in accordance with the protocols set forth by the Drug Evaluation Department of the National Cancer Institute (NCI), Bethesda, USA, for in vitro anticancer efficacy at a single concentration of 10 µM against a panel of 60 cancer cell lines derived from nine distinct organs (https://dctd.cancer.gov/data-tools-biospecimens/data (accessed on 15 March 2023 and 6 January 2024)) [37].
The log10 GI50, log10 TGI, and log10 LC50 values were subsequently calculated as the averages of the log10 values of the respective individual GI50, TGI, and LC50 measurements. Negative numbers signified the most sensitive cell lines.
One way to measure a compound’s selectivity is to divide its subpanel MID^b (in μM) by the MID^a (in μM), which is the average sensitivity of all cell lines to the test agent.
At the National Cancer Institute (NCI) in Bethesda, USA, researchers examined the anticancer potential of the target compounds under investigation using nine panels of sixty different cell lines obtained from nine different cancers that were housed in the NCI library. Following the protocols laid out by the National Cancer Institute (https://dctd.cancer.gov/data-tools-biospecimens/data (accessed on 15 March 2023 and 6 January 2024)), the screening procedures were carried out [37]. The anticancer screening was carried out at a single dose of 10^−5 M; the results obtained were expressed as growth inhibition (%).
The anti-cancer potential of the tested compounds was evaluated at the National cancer institute (NCI), Bethesda, USA, against 9 panels of 60 various cell lines derived from nine human tumours available usually at NCI library. The procedures for the screening were described in details in NCI website (dttp://www.dtp.nci.nih.gov.) and were done according to NCI protocols. The anticancer screening was carried out at single dose of 10^-5 M. The results obtained as growth inhibition (%).
Cell lines were grown in Roswell Park Memorial Institute medium (RPMI) with 5% fetal bovine serum and 2% μM L-glutamine. Cancer cells are inoculated into 96 well microtiter plates in 100 μL at plating densities ranging from 5000 to 40,000 cells/well depending on the doubling time of individual cell lines. Then microtiter plates are incubated at 37 °C, 5% CO2, 95% air and 100% relative humidity for 24 h prior to the addition of the tested compounds. After 24 h, two plates of each cell line are fixed in situ with trichloroacetic acid (TCA). The tested compounds were dissolved in dimethyl sulfoxide (DMSO) and stored in the freezer prior to use. An aliquot of frozen drug concentrate is diluted to the desired concentration with complete medium containing 50 μg/mL gentamicin.

IGROV1 = assay: NCI-60 screening, one-dose (10 µM) and five-dose, SRB; type: cell-based, human
SK-MEL-2 = assay: as above; type: cell-based, human
RXF 393 = assay: as above; type: cell-based; conditions: Homo sapiens; 10 μM; RXF 393, Renal Cancer; read-out: Growth percentage
HCT-15 = assay: as above; type: cell-based, human
SF-295 = assay: as above; type: cell-based, human; conditions: Homo sapiens
[2] = Homo sapiens, five-dose, SNB-75
[3] = Homo sapiens, five-dose, NCI-H226
[4] = Homo sapiens, five-dose, SF-268
[5] = Homo sapiens, five-dose, UACC-257
[6] = Homo sapiens, five-dose, MOLT-4
[7] = Homo sapiens, K562, five-dose, K-562
[8] = Homo sapiens, five-dose, COLO 205
[9] = Homo sapiens, IGROV-1, five-dose, IGROV1
[10] = Homo sapiens, five-dose, SK-MEL-2
[11] = Homo sapiens, five-dose, HCT-15

SMILES: Cc1nc(SCC(=O)N2CCN(c3cc4c(cc3F)c(=O)c(C(=O)O)cn4C3CC3)CC2)sc1C(=O)/C=C/c1cccc(F)c1 [Compound 4d, (E)-1-Cyclopropyl-6-fluoro-7-(4-(2-((5-(3-(3-fluorophenyl)acryloyl)-4-methylthiazol-2-yl)thio)acetyl)piperazin-1-yl)-4-oxo-1,4-dihydroquinoline-3-carboxylic Acid]
- activity at 10 µM (SNB-75; Homo sapiens, 10 μM, SNB-75, CNS Cancer, read-out: Growth percentage): 49.1%
- GI50 (SNB-75; [2]): > 100 µM
- IC50 (SNB-75; [2]): > 100 µM
- CC50 (SNB-75; Homo sapiens, five-dose, SNB-75, read-out: LC50 (the source's name)): > 100 µM
- TGI (SNB-75; five-dose, SNB-75): 100.0 µM
- activity at 10 µM (NCI-H226; Homo sapiens, 10 μM, NCI-H226, Non-Small-Cell Lung Cancer, read-out: Growth percentage): 70.9%
- GI50 (NCI-H226; [3]): > 100 µM
- IC50 (NCI-H226; [3]): > 100 µM
- LC50 (concentration killing 50% of cells) (NCI-H226; [3]): > 100 µM
- TGI (NCI-H226; five-dose, NCI-H226): 100.0 µM
- Growth percentage (NCI-H322M; 10 μM, Non-Small-Cell Lung Cancer): 95.7%
- GI50 (NCI-H322M; Homo sapiens, five-dose): > 100 µM
- IC50 (NCI-H322M; Homo sapiens, five-dose): > 100 µM
- LC50 (NCI-H322M; Homo sapiens, five-dose): > 100 µM
- TGI (NCI-H322M; five-dose): 100.0 µM
- GI50 (HCT-116; Homo sapiens): 0.21 µM
- IC50 (HCT-116; Homo sapiens): 0.34 µM
- TGI (HCT-116): 100.0 µM
- activity at 10 µM (SF-268; Homo sapiens, 10 μM, SF-268, CNS Cancer, read-out: Growth percentage): 25.7%
- GI50 (SF-268; [4]): 27.5 µM
- IC50 (SF-268; [4]): > 100 µM
- CC50 (SF-268; Homo sapiens, five-dose, SF-268, read-out: LC50 (the source's name)): > 100 µM
- TGI (SF-268; five-dose, SF-268): 100.0 µM
- activity at 10 µM (A549/ATCC; Homo sapiens, 10 μM, Non-Small-Cell Lung Cancer, read-out: Growth percentage): 65.8%
- GI50 (A549/ATCC; Homo sapiens, five-dose): > 100 µM
- IC50 (A549/ATCC; Homo sapiens, five-dose): > 100 µM
- CC50 (A549/ATCC; Homo sapiens, five-dose, read-out: LC50 (the source's name)): > 100 µM
- TGI (A549/ATCC; five-dose): 7.94 µM
- activity at 10 µM (UACC-257; Homo sapiens, 10 μM, UACC-257, Melanoma, read-out: Growth percentage): 53.9%
- GI50 (UACC-257; [5]): 46.8 µM
- IC50 (UACC-257; [5]): > 100 µM
- CC50 (UACC-257; Homo sapiens, five-dose, UACC-257, read-out: LC50 (the source's name)): > 100 µM
- TGI (UACC-257; five-dose, UACC-257): 100.0 µM
- activity at 10 µM (MOLT-4; Homo sapiens, 10 μM, MOLT-4, Leukemia, read-out: Growth percentage): 0.79%
- GI50 (MOLT-4; [6]): 3.4 µM
- IC50 (MOLT-4; [6]): 4.8 µM
- LC50 (concentration killing 50% of cells) (MOLT-4; [6]): 53.7 µM
- TGI (MOLT-4; five-dose, MOLT-4): 0.34 µM
- activity at 10 µM (K-562; Homo sapiens, K562, 10 μM, K-562, Leukemia, read-out: Growth percentage): 56.1%
- GI50 (K-562; [7]): 1.58 µM
- IC50 (K-562; [7]): 2.4 µM
- CC50 (K-562; Homo sapiens, K562, five-dose, K-562, read-out: LC50 (the source's name)): 9.12 µM
- TGI (K-562; five-dose, K-562): 8.7 µM
- activity at 10 µM (COLO 205; Homo sapiens, 10 μM, COLO 205, Colon Cancer, read-out: Growth percentage): 102%
- GI50 (COLO 205; [8]): 4.9 µM
- IC50 (COLO 205; [8]): 9.3 µM
- CC50 (COLO 205; Homo sapiens, five-dose, COLO 205, read-out: LC50 (the source's name)): > 100 µM
- TGI (COLO 205; five-dose, COLO 205): 19.95 µM
- CC50 ([1]; Homo sapiens, read-out: LC50): 0.6 to 100 µM
- activity at 10 µM ([1]; Homo sapiens, read-out: Mean growth percentage): 20.2%
- Full-panel MG-MID ([1]; mean sensitivity across all cell lines in the panel): 70.2 µM
- Growth percentage (IGROV1; 10 μM, IGROV1, Ovarian Cancer): 44.6%
- GI50 (IGROV1; [9]): > 100 µM
- IC50 (IGROV1; [9]): > 100 µM
- CC50 (IGROV1; Homo sapiens, IGROV-1, five-dose, IGROV1, read-out: LC50 (the source's name)): > 100 µM
- TGI (IGROV1; five-dose, IGROV1): 100.0 µM
- activity at 10 µM (SK-MEL-2; Homo sapiens, 10 μM, SK-MEL-2, Melanoma, read-out: Growth percentage): -15.4%
- GI50 (SK-MEL-2; [10]): > 100 µM
- IC50 (SK-MEL-2; [10]): > 100 µM
- CC50 (SK-MEL-2; Homo sapiens, five-dose, SK-MEL-2, read-out: LC50 (the source's name)): > 100 µM
- TGI (SK-MEL-2; five-dose, SK-MEL-2): 100.0 µM
- activity at 10 µM (RXF 393): -25.9%
- activity at 10 µM (HCT-15; Homo sapiens, 10 μM, HCT-15, Colon Cancer, read-out: Growth percentage): -41.7%
- GI50 (HCT-15; [11]): 33.9 µM
- IC50 (HCT-15; [11]): 53.7 µM
- LC50 (50% lethal concentration) (HCT-15; [11]): > 100 µM
- TGI (HCT-15; five-dose, HCT-15): 100.0 µM
- activity at 10 µM (SF-295; 10 μM, SF-295, CNS Cancer, read-out: Growth percentage): 93.1%
- GI50 (SF-295; five-dose, SF-295): > 100 µM
